Test systems include HCC-2998 colon; HCT-116 colon; HCT-15 colon; LOX IMVI melanoma; NCI-H226 lung; OVCAR-3 ovarian; SN12C renal; TK-10 renal; U251 CNS; UO-31 renal.
What all share (experiment): NCI tumour cell line growth inhibition, 48 h

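The compound was tested at five concentrations on cells cultured in 96-well plates, with a 48-hour exposure period. GI50 marks 50% less growth. TGI is the concentration that stops growth completely.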

Take `CCN(C(=O)CN1CCN(c2cc3c(cc2F)c(=O)c(C(=O)O)cn3CC)CC1)c1nc(-c2ccccc2)cs1`: the GI50 in the test with HCC-2998 colon was 0.402 µM; in the test on HCT-116 colon it was 0.378 µM; in the test on HCT-15 colon, 0.356 µM; in the test with LOX IMVI melanoma, 0.325 µM; in the test with NCI-H226 lung it was 0.477 µM; with OVCAR-3 ovarian, 0.475 µM. Also, the GI50 in the test with SN12C renal is 0.402 µM; in the test on TK-10 renal, 0.408 µM; in the test on U251 CNS, 0.354 µM; in the test on UO-31 renal it was 0.266 µM. Moreover, the TGI in the test with HCC-2998 colon, with HCT-116 colon, in the test with HCT-15 colon, with LOX IMVI melanoma, in the test with NCI-H226 lung and with OVCAR-3 ovarian was above 100 µM each time. Moreover, the TGI with SN12C renal, in the test on TK-10 renal, with U251 CNS and in the test on UO-31 renal was above 100 µM each time.
Turning to `O=C(Nc1cnc(C(F)(F)F)cn1)c1cc(Cl)ccc1O`, the GI50 is 0.294 µM with HCC-2998 colon; 0.246 µM with HCT-116 colon; 0.307 µM with HCT-15 colon; 0.291 µM in the test on LOX IMVI melanoma; 0.322 µM in the test on NCI-H226 lung; 0.279 µM in the test on OVCAR-3 ovarian. In addition, the GI50 in the test on SN12C renal was 0.326 µM; in the test with TK-10 renal it was 0.465 µM; with U251 CNS, 0.352 µM; in the test with UO-31 renal, 0.196 µM. The TGI in the test on HCC-2998 colon came to 4.6 µM; with HCT-116 colon, 1.4 µM; with HCT-15 colon, 3.24 µM; with LOX IMVI melanoma, 1.75 µM; in the test on NCI-H226 lung it was 23.9 µM; with OVCAR-3 ovarian, 20.3 µM. Moreover, the TGI was 52.4 µM in the test on SN12C renal, above 100 µM in the test on TK-10 renal, above 100 µM in the test on U251 CNS and 1.16 µM in the test with UO-31 renal.
Regarding `CCOC(=O)C1=C(C)N2C(=NC3=C(CCC/C3=C\c3ccc(Cl)cc3)C2c2ccc(Cl)cc2)S1` (centres undefined), the GI50 in the test with HCC-2998 colon was 1.79 µM; with HCT-116 colon, 1.4 µM; in the test on HCT-15 colon, 2.15 µM; with LOX IMVI melanoma, 1.75 µM; in the test with NCI-H226 lung, 3.04 µM; with OVCAR-3 ovarian, 2.36 µM. The GI50 with SN12C renal is 3.55 µM; in the test on TK-10 renal, 5.23 µM; in the test with U251 CNS, 1.86 µM; in the test with UO-31 renal it was 1.7 µM. Also, the TGI with HCC-2998 colon came out at 3.19 µM; with HCT-116 colon, 2.7 µM; in the test with HCT-15 colon, 4.84 µM; in the test on LOX IMVI melanoma, 3.15 µM; in the test on NCI-H226 lung it was 8.8 µM; in the test with OVCAR-3 ovarian, 5.61 µM. Besides, the TGI turned out to be 21.6 µM in the test on SN12C renal, 65.9 µM with TK-10 renal, 4.06 µM with U251 CNS and 3.85 µM in the test on UO-31 renal.
Take `COCCOCOC(C)(C)[C@H](CCOC(C)=O)O[Si](c1ccccc1)(c1ccccc1)C(C)(C)C`: the TGI is 26 µM in the test on HCC-2998 colon; above 100 µM with HCT-116 colon; above 100 µM in the test on HCT-15 colon; 27.6 µM with LOX IMVI melanoma; 19.8 µM in the test on NCI-H226 lung; 53.6 µM with OVCAR-3 ovarian. In addition, the TGI in the test on SN12C renal was found to be 29.5 µM; with TK-10 renal, 87.1 µM; with U251 CNS, 30.6 µM; with UO-31 renal, 36.9 µM.
Turning to `CN(c1ccc(C#N)c(Cl)c1)C1CCC(NC(=O)c2ccc(N3CCN(C4CN(c5ccc6c(c5)C(=O)N(C5CCC(=O)NC5=O)C6=O)C4)CC3)cc2)CC1` (centres undefined), the GI50 in the test with HCC-2998 colon, with HCT-116 colon, in the test on HCT-15 colon, in the test on LOX IMVI melanoma, with NCI-H226 lung and in the test with OVCAR-3 ovarian was above 100 µM throughout. The GI50 is above 100 µM in the test with SN12C renal, above 100 µM in the test with TK-10 renal, 61.2 µM in the test on U251 CNS and above 100 µM with UO-31 renal. For the same compound, the TGI in the test with HCC-2998 colon, in the test on HCT-116 colon, with HCT-15 colon, in the test with LOX IMVI melanoma, in the test with NCI-H226 lung and in the test with OVCAR-3 ovarian was above 100 µM each time. Moreover, the TGI in the test on SN12C renal, with TK-10 renal, with U251 CNS and in the test with UO-31 renal was above 100 µM throughout.
In the case of `CCN1C(=O)N(CC)C2C1NN=c1s/c(=C\c3ccc[nH]3)c(=O)n12` (centres undefined), the GI50 with HCC-2998 colon was 1.82 µM; in the test with HCT-116 colon, 0.453 µM; in the test with HCT-15 colon it was 0.337 µM; in the test on LOX IMVI melanoma, 0.578 µM; in the test with OVCAR-3 ovarian, 0.279 µM; in the test on SN12C renal, 0.991 µM. Further, the GI50 in the test on TK-10 renal was above 47.8 µM; with U251 CNS, 0.446 µM; in the test with UO-31 renal, 0.719 µM. Also, the TGI was above 100 µM in the test on HCC-2998 colon; above 100 µM in the test on HCT-116 colon; above 100 µM with HCT-15 colon; above 100 µM in the test with LOX IMVI melanoma; above 100 µM in the test with NCI-H226 lung; 0.948 µM in the test with OVCAR-3 ovarian. The TGI in the test on SN12C renal, with TK-10 renal, in the test with U251 CNS and in the test with UO-31 renal was above 100 µM in each case.
Consider `O=[N+]([O-])c1ccc2c(Nc3ccccc3-c3ccccc3Nc3c4ccccc4nc4cc([N+](=O)[O-])ccc34)c3ccccc3nc2c1`, for which the TGI came out at 16.6 µM in the test with HCC-2998 colon; 6.38 µM with HCT-116 colon; 17.6 µM in the test on HCT-15 colon; 47.4 µM in the test with LOX IMVI melanoma; 32.4 µM in the test on NCI-H226 lung; 29.1 µM in the test on OVCAR-3 ovarian. For the same compound, the TGI amounted to 58.1 µM with SN12C renal, 36.9 µM in the test on TK-10 renal, 22.9 µM in the test on U251 CNS and 28.8 µM in the test on UO-31 renal.
Consider `O=C(N/C(=C\c1cc(Cl)ccc1Cl)c1nc2ccc(Cl)cc2[nH]1)c1ccccc1`, for which the TGI was determined as 32.4 µM with HCC-2998 colon; 22.3 µM with HCT-116 colon; 31 µM with HCT-15 colon; 26.4 µM in the test with LOX IMVI melanoma; 42.4 µM in the test on NCI-H226 lung; 35.1 µM with OVCAR-3 ovarian. Also, the TGI in the test on SN12C renal amounted to 34 µM; in the test on TK-10 renal it was 10.9 µM; in the test on U251 CNS, 30.1 µM; in the test on UO-31 renal it was 24.4 µM.
